ChEMBL document CHEMBL1126565, “Three-dimensional QSAR of human immunodeficiency virus (I) protease inhibitors. 1. A CoMFA study employing experimentally-determined alignment rules” (J Med Chem, 1993)
Starred links: 1 amine or outer side, 2 acyl side, 3 side chain; linkers in the order of their positions; H or OH if unused. Non-standard residues stand in square brackets, D forms with d. Residues, ends and D or L forms follow the SMILES beside them. ξ: configuration not given here. Phe(ψ(S)CH(OH)CH2N)Pro = O=C([C@@H]1CCCN1C[C@H](O)[C@H](Cc1ccccc1)N[*:1])[*:2]; Pheψ(R-CH(OH)CH2N)Pro = O=C([C@@H]1CCCN1C[C@@H](O)[C@H](Cc1ccccc1)N[*:1])[*:2]; Sta = CC(C)C[C@H](N)[C@@H](O)CC(=O)O; ξIva = CCC(C)(N)C(=O)O

molecular target: Human immunodeficiency virus type 1 protease (Human immunodeficiency virus 1, UniProt Q72874); experiment: Inhibitory potency against HIV-1 protease

Row | Compound | IC50
1 | CC[C@H](C)[C@H](NC(=O)[C@@H]1CCCN1C[C@@H](O)[C@H](Cc1ccccc1)NC(=O)[C@H](CC(N)=O)NC(=O)OCc1ccccc1)C(=O)N[C@H](C(=O)OC)C(C)C | 13 nM
2 | CC(C)(C)NC(=O)[C@@H]1CCCCN1C[C@@H](O)[C@H](Cc1ccccc1)NC(=O)[C@H](CC(N)=O)NC(=O)c1ccc2ccccc2n1 | 470 nM
3 | CC(C)(C)N(C[C@@H](O)[C@H](Cc1ccccc1)NC(=O)[C@H](CC(N)=O)NC(=O)c1ccc2ccccc2n1)C(=O)NCC1CCCCC1 | 5 nM
4 | CCCCN(C[C@@H](O)[C@H](Cc1ccccc1)NC(=O)[C@H](CC(N)=O)NC(=O)OCc1ccccc1)C(=O)NCC(C)C | 942 nM
5 | CC(C)(C)N(C[C@@H](O)[C@H](Cc1ccccc1)NC(=O)[C@H](CC(N)=O)NC(=O)OCc1ccccc1)C(=O)NCC1CCCCC1 | 29 nM
6 | CC(C)CCNC(=O)N(C[C@@H](O)[C@H](Cc1ccccc1)NC(=O)[C@H](CC(N)=O)NC(=O)c1ccc2ccccc2n1)C(C)(C)C | 3 nM
7 | CC(C)(C)NC(=O)C1CCCCN1C[C@H](O)[C@H](Cc1ccccc1)NC(=O)C(CC(N)=O)NC(=O)c1ccc2ccccc2n1 (stereo partly specified) | 2 nM
8 | CC(C)CNC(=O)N(C[C@@H](O)[C@H](Cc1ccccc1)NC(=O)[C@H](CC(N)=O)NC(=O)OCc1ccccc1)C(C)(C)C | 35 nM
9 | CC(C)(C)N(C[C@@H](O)[C@H](Cc1ccccc1)NC(=O)[C@H](CC(N)=O)NC(=O)c1ccc2ccccc2n1)C(=O)NCc1ccccc1 | 3 nM
10 | CC(C)(C)NC(=O)C1CCCCN1C[C@H](O)[C@H](Cc1ccccc1)NC(=O)C(CC#N)NC(=O)OCc1ccccc1 (stereo partly specified) | 23 nM
11 | CC(C)(C)N(C[C@@H](O)[C@H](Cc1ccccc1)NC(=O)[C@H](CC(N)=O)NC(=O)c1ccc2ccccc2n1)C(=O)NCc1ccncc1 | 19 nM
12 | CC(C)CNC(=O)N(C)C[C@@H](O)[C@H](Cc1ccccc1)NC(=O)[C@H](CC(N)=O)NC(=O)OCc1ccccc1 | 1500 nM
13 | C[C@@H](NC(=O)N(C[C@@H](O)[C@H](Cc1ccccc1)NC(=O)[C@H](CC(N)=O)NC(=O)OCc1ccccc1)C(C)(C)C)c1ccccc1 | 6500 nM
14 | CC(C)(C)N(C[C@@H](O)[C@H](Cc1ccccc1)NC(=O)[C@H](CC(N)=O)NC(=O)OCc1ccccc1)C(=O)NCc1ccccc1 | 19 nM
15 | CCCN(C[C@@H](O)[C@H](Cc1ccccc1)NC(=O)[C@H](CC(N)=O)NC(=O)OCc1ccccc1)C(=O)NCC(C)C | 519 nM
16 | CC(C)(C)OC(=O)N[C@@H](Cc1ccccc1)C(O)C[C@@H](Cc1ccccc1)C(=O)N[C@H]1c2ccccc2C[C@H]1O (stereo partly specified) | 252 nM
17 | CC[C@H](C)[C@H](NC(=O)[C@@H]1CCCN1CC(O)[C@H](Cc1ccccc1)NC(=O)[C@H](CC(N)=O)NC(=O)c1ccc2ccccc2n1)C(=O)N[C@@H](Cc1ccccc1)C(=O)OC (stereo partly specified) | 2.3 nM
18 | CC[C@H](C)[C@H](NC(=O)[C@@H]1CCCN1CC(O)[C@H](Cc1ccccc1)NC(=O)[C@H](CC(N)=O)NC(=O)OCc1ccccc1)C(=O)N[C@H](C(=O)OC)C(C)C (stereo partly specified) | 316 nM
19 | CC[C@@H](C)[C@H](NC(=O)[C@@H](CC(C)C)C(O)C(O)[C@H](CC(C)C)NC(=O)C(Cc1c[nH]cn1)NC(=O)COc1cccc2ccccc12)C(=O)NCc1ccccn1 (stereo partly specified) | 495 nM

Row | Compound | IC50
20 | C[C@H](NC(=O)N(C[C@@H](O)[C@H](Cc1ccccc1)NC(=O)[C@H](CC(N)=O)NC(=O)OCc1ccccc1)C(C)(C)C)c1ccccc1 | 5090 nM
21 | CCCCN(C[C@@H](O)[C@H](Cc1ccccc1)NC(=O)[C@H](CC(N)=O)NC(=O)c1ccc2ccccc2n1)C(=O)NCC(C)C | 126 nM
22 | CC(C)(C)NC(=O)[C@@H]1CCCN1C[C@H](O)[C@H](Cc1ccccc1)NC(=O)[C@H](CC(N)=O)NC(=O)OCc1ccccc1 | 210 nM
23 | CC[C@H](C)[C@H](NC(=O)[C@@H](C(C)C)C(O)C(O)[C@H](CC1CCCCC1)NC(=O)CC1CCCCC1)C(=O)NCc1ccccn1 (stereo partly specified) | 49.5 nM
24 | CC(C)(C)NC(=O)[C@@H]1C[C@@H]2CCCC[C@@H]2CN1C[C@@H](O)[C@H](Cc1ccccc1)NC(=O)[C@H](CC(N)=O)NC(=O)OCc1ccccc1 | 316 nM
25 | CC[C@H](C)[C@H](NC(=O)[C@@H]1CCCN1C[C@@H](O)[C@H](Cc1ccccc1)NC(=O)[C@H](CC(N)=O)NC(=O)OCc1ccccc1)C(=O)N[C@@H](Cc1ccccc1)C(=O)OC | 4 nM
26 | CC[C@H](C)[C@H](NC(=O)[C@@H](C(C)C)C(O)C(O)[C@H](CC1CCCCC1)NC(=O)[C@H](Cc1c[nH]cn1)NC(=O)COc1cccc2ccccc12)C(=O)NCc1ccccn1 (stereo partly specified) | 1.8 nM
27 | CC[C@H](C)[C@H](NC(=O)[C@@H](CC(C)C)C(O)C(O)[C@H](CC1CCCCC1)NC(=O)[C@H](Cc1c[nH]cn1)NC(=O)COc1cccc2ccccc12)C(=O)NCc1ccccn1 (stereo partly specified) | 11.2 nM
28 | CC[C@H](C)[C@H](NC(=O)[C@@H]1C[C@@H]2CCCC[C@@H]2CN1C[C@@H](O)[C@H](Cc1ccccc1)NC(=O)[C@H](CC(N)=O)NC(=O)OCc1ccccc1)C(=O)N[C@H](C(=O)OC)C(C)C | 316 nM
29 | CC[C@H](C)[C@H](NC(=O)[C@H](CC(C)C)C(O)C(O)[C@H](CC(C)C)NC(=O)[C@H](Cc1c[nH]cn1)NC(=O)COc1cccc2ccccc12)C(=O)NCc1ccccn1 (stereo partly specified) | 15.7 nM
30 | CC[C@H](C)[C@H](NC(=O)[C@@H](CC1CCCCC1)C(O)C(O)[C@H](CC1CCCCC1)NC(=O)[C@H](Cc1c[nH]cn1)NC(=O)COc1cccc2ccccc12)C(=O)NCc1ccccn1 (stereo partly specified) | 58.5 nM
31 | CC[C@H](C)[C@H](NC(=O)[C@@H](C(C)C)C(O)C(O)[C@H](CC(C)C)NC(=O)[C@H](Cc1c[nH]cn1)NC(=O)[C@H](Cc1ccccc1)NC(=O)OC(C)(C)C)C(=O)NCc1ccccn1 (stereo partly specified) | 63 nM
32 | CC[C@H](C)[C@H](NC(=O)[C@@H](C(C)C)C(O)C(O)[C@H](CC(C)C)NC(=O)[C@H](Cc1c[nH]cn1)NC(=O)COc1cccc2ccccc12)C(=O)NCc1ccccn1 (stereo partly specified) | 11.2 nM
33 | CC[C@H](C)[C@H](NC(=O)[C@@H](C(C)C)C(O)C(O)[C@H](CC1CCCCC1)NC(=O)[C@H](Cc1c[nH]cn1)NC(=O)COc1ccccc1)C(=O)NCc1ccccn1 (stereo partly specified) | 4.5 nM
34 | CC[C@H](C)CNC(=O)[C@@H](C(C)C)C(O)C(O)[C@H](CC(C)C)NC(=O)[C@H](Cc1c[nH]cn1)NC(=O)[C@H](Cc1ccccc1)NC(=O)OC(C)(C)C (stereo partly specified) | 809 nM
35 | CC[C@H](C)[C@H](NC(=O)[C@@H](C(C)C)C(O)C(O)[C@H](Cc1c[nH]cn1)NC(=O)COc1ccccc1)C(=O)NCc1ccccn1 (stereo partly specified) | 11.2 nM
36 | CC[C@H](C)[C@H](NC(=O)[C@@H](C(C)C)C(O)C(O)[C@H](CC1CCCCC1)NC(=O)[C@H](Cc1c[nH]cn1)NC(=O)CN)C(=O)NCc1ccccn1 (stereo partly specified) | 24.8 nM
37 | CC[C@H](C)[C@H](NC(=O)[C@@H](C(C)C)C(O)C(O)[C@H](CC1CCCCC1)NC(=O)[C@H](Cc1c[nH]cn1)NC(=O)CO)C(=O)NCc1ccccn1 (stereo partly specified) | 8.99 nM
38 | CC[C@H](C)CNC(=O)[C@@H](C(C)C)C(O)C(O)[C@H](Cc1c[nH]cn1)NC(=O)COc1ccccc1 (stereo partly specified) | 809 nM

Row | Compound | IC50
39 | COC(=O)[C@@H](NC(=O)[C@H](CC(C)C)NC(=O)[C@@H]1CCCN1C[C@H](O)[C@H](Cc1ccccc1)NC(=O)[C@H](CC(N)=O)NC(=O)OC(C)(C)C)C(C)C | 849 nM
40 | CC(C)(C)OC(=O)[C@@H]1CCCN1C[C@H](O)[C@H](Cc1ccccc1)NC(=O)[C@H](CC(N)=O)NC(=O)c1ccc2ccccc2n1 | 23 nM
41 | CC[C@H](C)[C@H](NC(=O)[C@@H](Cc1ccccc1)[C@@H](O)[C@H](O)[C@H](Cc1ccccc1)NC(=O)[C@H](Cc1c[nH]cn1)NC(=O)COc1cccc2ccccc12)C(=O)NCc1ccccn1 | 27 nM
42 | CC(C)(C)N(C[C@@H](O)[C@H](Cc1ccccc1)NC(=O)[C@H](CC(N)=O)NC(=O)OCc1ccccc1)C(=O)NCc1ccncc1 | 105 nM
43 | COC(=O)[C@@H](NC(=O)[C@H](CC(C)C)NC(=O)[C@@H]1CCCN1C[C@@H](O)[C@H](Cc1ccccc1)NC(=O)[C@H](CC(N)=O)NC(=O)OC(C)(C)C)C(C)C | 16 nM
44 | CC(C)CNC(=O)N(C[C@@H](O)[C@H](Cc1ccccc1)NC(=O)[C@H](CC(N)=O)NC(=O)c1ccc2ccccc2n1)C(C)(C)C | 6.01 nM
45 | CC(C)CCNC(=O)N(C[C@@H](O)[C@H](Cc1ccccc1)NC(=O)[C@H](CC(N)=O)NC(=O)OCc1ccccc1)C(C)(C)C | 13 nM
46 | CC(C)CNC(=O)N(C[C@@H](O)[C@H](Cc1ccccc1)NC(=O)[C@H](CC(N)=O)NC(=O)OCc1ccccc1)C(C)C | 260 nM
47 | CSCC(NC(=O)c1ccc2ccccc2n1)C(=O)N[C@@H](Cc1ccccc1)[C@@H](O)CN1CCCCC1C(=O)NC(C)(C)C (stereo partly specified) | 12 nM
48 | CC(C)(C)OC(=O)N[C@@H](CC(N)=O)C(=O)N[C@@H](Cc1ccccc1)C(O)C[C@@H](Cc1ccccc1)C(=O)N[C@H]1c2ccccc2C[C@H]1O (stereo partly specified) | 295 nM
49 | CC(C)(C)OC(=O)[C@@H]1CCCN1CC(O)[C@H](Cc1ccccc1)NC(=O)[C@H](CC(N)=O)NC(=O)OCc1ccccc1 (stereo partly specified) | 140 nM
50 | CC(C)(C)NC(=O)[C@@H]1C[C@@H]2CCCC[C@@H]2CN1C[C@H](O)[C@H](Cc1ccccc1)NC(=O)[C@H](CC(N)=O)NC(=O)OCc1ccccc1 | 2.7 nM
51 | CCN(C[C@@H](O)[C@H](Cc1ccccc1)NC(=O)[C@H](CC(N)=O)NC(=O)OCc1ccccc1)C(=O)NCC(C)C | 330 nM
52 | CC(C)(C)OC(=O)[C@@H]1CCCN1C[C@H](O)[C@H](Cc1ccccc1)NC(=O)OCc1ccccc1 | 6500 nM
53 | COC(=O)[C@@H](NC(=O)[C@H](CC(C)C)NC(=O)[C@@H]1CCCN1C[C@H](O)[C@H](Cc1ccccc1)NC(=O)[C@H](CC(N)=O)NC(=O)[C@H](CC(C)C)NC(=O)[C@H](CO)NC(C)=O)C(C)C (Ac-SLN[Phe(ψ(S)CH(OH)CH2N)Pro]LV-OMe) | 65 nM
54 | COC(=O)[C@@H](NC(=O)[C@H](CC(C)C)NC(=O)[C@@H]1CCCN1C[C@@H](O)[C@H](Cc1ccccc1)NC(=O)[C@H](CC(N)=O)NC(=O)[C@H](CC(C)C)NC(=O)[C@H](CO)NC(C)=O)C(C)C (Ac-SLN[Pheψ(R-CH(OH)CH2N)Pro]LV-OMe) | 3.4 nM
55 | CC[C@H](C)[C@H](N)C(=O)N[C@@H](CCC(N)=O)C(=O)N[C@@H](CC(C)C)[C@@H](O)CC(=O)N[C@@H](CC(N)=O)C(=O)N[C@@H](Cc1ccccc1)C(=O)N[C@@H](CO)C(=O)O (H-IQ[Sta]NFS-OH) | 12000 nM
56 | CCC(C)(NC(=O)[C@@H](NC(=O)[C@@H](NC(=O)C[C@H](O)[C@H](CC(C)C)NC(=O)[C@H](C)NC(=O)C[C@H](O)[C@@H](N)CC(C)C)C(C)C)C(C)C)C(=O)O (stereo partly specified) (H-[Sta]A[Sta]VV[ξIva]-OH) | 12000 nM
